# Data published in patent US8592419B2, “Ceramides and apoptosis-signaling ligand” (MUSC Foundation for Research Development, priority 2004, dated 2013).
# Tests used:
# Caspases 3 and 7 = test: Caspase 3/7 activity assay; format: cell-based, human; settings: DU145 cells, 24 hours treatment
# Procedure: Caspase 3/7 Activity Assay. Cells were seeded overnight in clear bottom black 96 well plates (Corning; Acton Mass.). The next day, medium was removed and replaced with medium containing vehicle or LCL204 at indicated concentrations. After 24 hours treatment, Caspases 3 and 7 activities were measured using Apo-ONE Homogeneous Caspase 3/7 assay according to the manufacturer's instructions (Promega). Fluorescence was measured using a Fluostar dual fluorescence/absorbance plate reader (BMG Laboratories; Durham, N.C., USA) with 485 nm excitation and 520 nm emission filter set.
# lysosomes of DU145 cells = test: Lysosomal stability assay (LysoTracker Red); format: cell-based, human
# Procedure: Lysosoinal stability assay. Lysosomal stability was measured using the fluorescent dye LysoTracker Red (LTR). Cells were seeded overnight in 60 mm plates. The next day, medium was removed and replaced with medium containing 200 nM LTR. Cells were loaded with LTR for 30 minutes at 37° C. LTR was removed and cells were washed once with PBS, then medium containing the treatment was added for the indicated time. After treatment, cells were lifted with trypsin, washed once in PBS, and resuspended in 0.5 mL growth medium. LTR fluorescence was measured using FACS analysis (564-606 nm) as above. A decrease in fluorescence intensity corresponded to an increase in lysosomal pH, and a minimum of 10,000 events were scored for each sample.
# cathepsin B = test: Cathepsin B translocation to cytosol (subcellular fractionation, Western blot, activity assay); format: cell-based, human; settings: DU145 cells
# Procedure: Subcellular fractionation. For cytochrome c immunoblot, cells were seeded and treated as described above. Cells were harvested at 4, 12, or 24 hours after treatment as described previously (62) and proteins (15 μg) were separated by gel electrophoresis and immunoblotted for cytochrome c as above. The protocol for separating cytosolic and heavy membrane fractions is a modified version of that used by Desahger et al. (63). Briefly, cells were seeded and treated in 60 mm plates as described above. Cells were harvested at 0, 0.5, 1, and 2 hours after treatment, washed once in PBS, and gently resuspended in isotonic mitochondrial buffer (210 mM mannitol, 70 mM sucrose, 1 mM EDTA, 10 mM HEPES, pH 7.0) supplemented with protease inhibitors. Cells were then transferred to 1.5 mL microcentrifuge tubes and homogenized using 40 strokes with a polished (fine grain sandpaper) Teflon pestle. Fractions were separated using differential centrifugation as described in the reference. All fractions were stored at −80° C. Cytosolic and heavy membrane fractions (30 and 15 μg, respectively) were separated on NuPAGE gels and immunoblotted as described above. […] Enzyme activity per 50 μg lysate was measured using the fluorogenic cathepsin B substrate 111 (Calbiochem) according to the manufacturer's protocol.
# AC mRNA = test: Reverse transcriptase PCR of AC mRNA; format: cell-based, human; settings: 10 μM, DU145 cells
# Procedure: Reverse Transcriptase PCR. DU145 cells were seeded in 6-well plates as described above. […] Cells were collected at indicated time points and total RNA was extracted using RNAqueous-4PCR kit (Ambion Inc.; Austin, TX), including the DNase I treatment step to remove DNA contamination. The level of transcripts of AC was assayed by two-step RT-PCR protocol (Ambion) and Rig/S15 was used as an internal control. The sequence of the primer for amplification of AC is as followed: [NT] 375 bp. All reactions were performed in a programmable thermal cycler (reverse transcription at 55° C. for 1 hour; PCR at 95° C., 3 minutes; 95° C., 30 second; 52° C., 1 minute and extension at 72° C. for 1 minute; final extension at 72° C., 10 minutes).
# acid ceramidase (AC) = target: T1, acid ceramidase (AC) (Homo sapiens, UniProt Q13510); test: Immunoblot of acid ceramidase protein; format: cell-based; settings: DU145 cells
# T1 construct: endogenous in cells
# T1 sequence (Q13510 22-395): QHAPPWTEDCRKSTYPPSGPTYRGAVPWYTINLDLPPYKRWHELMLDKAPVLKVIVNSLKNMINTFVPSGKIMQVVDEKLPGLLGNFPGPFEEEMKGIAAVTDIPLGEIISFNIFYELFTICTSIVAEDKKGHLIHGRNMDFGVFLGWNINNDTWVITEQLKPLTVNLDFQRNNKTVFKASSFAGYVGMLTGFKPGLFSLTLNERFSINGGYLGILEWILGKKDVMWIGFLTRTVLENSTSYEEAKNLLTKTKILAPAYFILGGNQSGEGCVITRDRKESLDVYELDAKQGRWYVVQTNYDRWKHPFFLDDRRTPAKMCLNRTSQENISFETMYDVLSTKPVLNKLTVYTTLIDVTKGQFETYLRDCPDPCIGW
# Procedure: Immunoblot analysis. Cells were seeded in 60mm plates as described above and treated accordingly. Cells were lifted by gently scraping the plates, washed once with ice cold PBS and then lysed in lysis buffer (PBS, 1% Triton X-100, 10% glycerol) containing protease inhibitors pepstatin A (0.5 μg/ml), leupeptin (0.5 μg/ml), aprotinin (5 μg/ml), and PMSF (100 μg/ml) for 10 minutes on ice. Insoluble material was removed by centrifugation at 14,000 rpm for 15 minutes at 4° C. The supernatants were then supplemented with SDS at a final concentration of 2% and stored at −80° C. Protein concentrations were determined using the DC Protein Assay (BioRad Laboratories; Hercules, CA, USA) according to the manufacturer's instructions. 50 μg of protein per sample (unless otherwise indicated) were separated on NuPAGE 4-12% Bis-Tris gels (Invitrogen; Carlsbad, CA, USA) and transferred to nitrocellulose membranes (BioRad). Following transfer, membranes were blocked for 1 hour at room temperature in Tris-buffered saline (TBS) containing 0.1% Tween-20 and 5% nonfat dry milk and incubated overnight at 4° C. with primary antibody at a dilution of 1:2,000(actin), 1:1,000(cytochrome c, COX IV, Bax, Bak, p53, p38, P-p38), 1:500(P-JNK, JNK), 1:250 (AC, p73), or 1:400(LAMP-1, cathepsin B). Overnight incubations were performed in 5% milk in TBS-Tween. Following overnight incubation, membranes were washed three times for 10 minutes each in TBS-Tween and incubated for 1 hour at room temperature with secondary antibody in 5% milk TBS-Tween at a dilution 1:5,000 (goat anti-mouse IgG) or 1:50,000 (goat anti-rabbit). Membranes were then washed three times more and incubated for 5 minutes at room temperature with Super Signal HRP substrate (Pierce Biotechnology Inc.; Rockford, IL, USA).
compound,measurement,setting,value
"CCCCCCCCCCCCCCN[C@H](CO)[C@H](O)c1ccc([N+](=O)[O-])cc1.Cl [LCL204, (1R,2R) D-threo-2-N-Tetradecylamino-1-(4′-nitrophenyl)-1,3-propandiol hydrochloride]",executioner caspase activity,Caspases 3 and 7,dose-dependent executioner caspase activity
same,onset of the effect on lysosomal pH,"lysosomes of DU145 cells; DU145 cells, 10 μM",as early as five minutes
same,shift in LTR fluorescence (rise in lysosomal pH),"lysosomes of DU145 cells; DU145 cells, 1 hour, LCL204 10 μM, C6-ceramide 30 μM, B13 20 μM",induced the shift in LTR fluorescence
same,lysosome destabilization versus concentration,"lysosomes of DU145 cells; DU145 cells, one hour",destabilized lysosomes in a concentration-dependent manner
same,earliest destabilization of the lysosomes,lysosomes of DU145 cells; prostate cancer cells,5 min
same,time within which cytosolic cathepsin B activity increased,"cathepsin B; 10 μM, enzyme activity assay",≤ 30 min
same,time within which active cathepsin B was detected in the cytosolic fraction,cathepsin B; Western blot,≤ 30 min
same,AC mRNA levels,AC mRNA,no decrease in AC mRNA levels
same,earliest down-regulation of AC,acid ceramidase (AC); 5 μM,2 h
same,AC expression levels,acid ceramidase (AC),dose and time-dependent decrease in AC expression levels
